Patent publication US20260200890A1, “ADAR1 INHIBITORS AND METHODS OF USING THE SAME” (AVAMMUNE THERAPEUTICS INC., priority 2022, published 2026)

Experiments:
ADAR1 = target: T1, ADAR1 (Homo sapiens, UniProt P55265); test: ADAR1 Inhibition Assay (IFN fold-induction, Quanti-Luc luminescence, p110 KO A549 dual cells); assay type: cell-based; details: IFN fold-induction vs DMSO, 24 and 48 h
T1 construct: endogenous in cells; host or cells: p110 KO A549 dual cells
T1 sequence (P55265 1-1226): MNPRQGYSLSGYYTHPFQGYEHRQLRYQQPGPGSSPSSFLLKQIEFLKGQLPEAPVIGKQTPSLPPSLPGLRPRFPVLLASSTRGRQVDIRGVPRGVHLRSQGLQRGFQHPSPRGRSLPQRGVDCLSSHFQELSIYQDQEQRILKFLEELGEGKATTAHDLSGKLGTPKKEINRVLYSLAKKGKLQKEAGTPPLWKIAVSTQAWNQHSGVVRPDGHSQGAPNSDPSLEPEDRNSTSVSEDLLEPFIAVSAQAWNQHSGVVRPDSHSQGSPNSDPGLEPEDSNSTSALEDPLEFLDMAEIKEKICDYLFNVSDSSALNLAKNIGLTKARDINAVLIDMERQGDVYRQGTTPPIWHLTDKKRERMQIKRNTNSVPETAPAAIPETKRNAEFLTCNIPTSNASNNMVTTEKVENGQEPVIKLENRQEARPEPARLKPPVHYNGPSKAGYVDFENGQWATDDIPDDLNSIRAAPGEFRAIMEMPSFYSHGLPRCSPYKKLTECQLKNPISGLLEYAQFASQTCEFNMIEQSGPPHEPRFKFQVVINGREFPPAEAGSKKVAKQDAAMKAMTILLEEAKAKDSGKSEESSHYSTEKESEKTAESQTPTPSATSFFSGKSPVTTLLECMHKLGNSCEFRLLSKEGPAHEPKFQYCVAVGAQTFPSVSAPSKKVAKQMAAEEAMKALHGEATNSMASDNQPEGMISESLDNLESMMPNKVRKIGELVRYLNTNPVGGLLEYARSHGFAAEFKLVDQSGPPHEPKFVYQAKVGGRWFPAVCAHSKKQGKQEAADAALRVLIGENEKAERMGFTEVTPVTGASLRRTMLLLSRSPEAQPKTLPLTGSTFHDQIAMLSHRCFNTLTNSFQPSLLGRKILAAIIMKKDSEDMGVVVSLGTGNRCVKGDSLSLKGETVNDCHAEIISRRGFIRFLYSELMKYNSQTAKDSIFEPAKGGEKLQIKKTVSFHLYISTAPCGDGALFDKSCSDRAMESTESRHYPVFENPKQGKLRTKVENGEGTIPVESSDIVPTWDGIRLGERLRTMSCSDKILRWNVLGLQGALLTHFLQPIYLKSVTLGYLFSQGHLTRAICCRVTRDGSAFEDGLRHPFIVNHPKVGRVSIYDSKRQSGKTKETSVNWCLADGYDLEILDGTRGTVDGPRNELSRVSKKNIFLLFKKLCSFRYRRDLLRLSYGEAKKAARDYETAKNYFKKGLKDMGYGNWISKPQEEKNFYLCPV
Method in brief: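 EC50 derived from IFN fold-induction, calculated as sample RLU over average DMSO RLU. Luminescence measured by Quanti-Luc on samples taken after 24 and 48 h of compound exposure (1% DMSO final, 37 °C, 5% CO2). Cells were p110 KO A549 dual, seeded at 20,000 per well in supplemented DMEM.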

Zα domain of ADAR1 p150 = target: T2, Zα domain of ADAR1 p150 (Homo sapiens, UniProt P55265); test: SPR binding assay; details: 6× his tag Zα domain immobilized on CM5 chip, analyte 0-25 μM
T2 construct: 10 μg/ml of Zα domain of ADAR1 was immobilized on CM5 chip using anti-HIS antibody; made in house
T2 sequence (P55265 133-199 limits assumed): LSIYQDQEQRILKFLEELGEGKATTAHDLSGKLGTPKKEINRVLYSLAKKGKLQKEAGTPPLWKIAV
Method: 6× his tag Za domain of ADAR1 p150 was purified using bacterial purification system. Protein was isolated from supernatant of cell lysate using Ni-NTA resin. For binding assay using SPR, 10 μg/ml of Zα domain of ADAR1 was immobilized on CM5 chip using anti-HIS antibody. Binding was quantified using the following condition below: • Analyte: 25, 12.5, 6.25, 3.125, 1.56, 0.78, 0 μM • Contact time—60 seconds, • Dissociation time—320 seconds • Flow rate—30 μL/minute Running buffer-PBSP+5% DMSO • After curve fitting, Kd values for synthesized compounds was quantified using the instrument software.

SMILES | EC50 (ADAR1) | Kd (Zα domain of ADAR1 p150)
CCOC(=O)c1cc(-c2ccccc2)sc1NC(=O)COC(=O)c1cccc(C(=O)OC)c1 [Compound 359] | > 100 µM | ≤ 1 µM
CCOC(=O)c1cc(-c2ccccc2)sc1NC(=O)COC(=O)c1ccc(P(=O)(OCC)OCC)cc1 [Compound 421] | > 100 µM | ≤ 1 µM
CCOC(=O)c1cc(-c2ccccc2)sc1NC(=O)[C@@H]1CCN(Cc2cccc(P(=O)(O)O)c2)C1 [Compound 398] | > 100 µM | > 25 µM
CCOC(=O)c1sc(NC(=O)COC(=O)c2cccc(P(=O)(OCC)OCC)c2)nc1-c1ccccc1 [Compound 356] | > 100 µM | > 25 µM
CCOC(=O)c1cc(-c2ccccc2)sc1NC(=O)COC(=O)C1(c2cccc(NS(C)(=O)=O)c2)CCCC1 [Compound 396] | > 100 µM | ≤ 1 µM
CCOC(=O)c1cc(-c2ccc(P(=O)(OCC)OCC)cc2)sc1NC(=O)COC(=O)c1cccc(NS(C)(=O)=O)c1 [Compound 389] | > 100 µM | > 25 µM
CCOC(=O)c1cc(-c2ccccc2)sc1NC(=O)Cn1cc(-c2cccc(P(=O)(O)O)c2)nn1 [Compound 386] | > 100 µM | > 25 µM
CCOC(=O)c1cc(-c2ccccc2)sc1NC(=O)COC(=O)c1cccc(NS(=O)(=O)C2CC2)c1 [Compound 161] | ≤ 25 µM | > 25 µM
CCOC(=O)c1cc(-c2ccccc2)[nH]c1NC(=O)[C@@H]1CCN(C(=O)c2cccc(P(=O)(OC)OCC)c2)C1 (stereo partly drawn) [Compound 403] | 50 to 100 µM | > 25 µM
CCOC(=O)c1cc(-c2ccccc2)sc1NC(=O)COC(=O)c1ccc(P(=O)(O)O)cc1 [Compound 424] | > 100 µM | ≤ 1 µM
CCOC(=O)c1cc(-c2ccccc2)sc1C1=CCN(C(=O)c2cccc(NS(C)(=O)=O)c2)CC1 [Compound 294] | > 100 µM | ≤ 1 µM
CCOC(=O)c1cc(-c2ccccc2)sc1C(=O)CNC(=O)c1cccc(NS(C)(=O)=O)c1 [Compound 292] | > 100 µM | ≤ 1 µM
CCOC(=O)c1cc(-c2ccccc2)[nH]c1NC(=O)COC(=O)c1cccc(P(=O)(OCC)OCC)c1 [Compound 349] | > 100 µM | > 25 µM
CCOC(=O)c1cc(-c2ccccc2)sc1NC(=O)CNC(=O)CCc1cccc(NS(C)(=O)=O)c1 [Compound 365] | > 100 µM | ≤ 1 µM
CCOC(=O)c1cc(-c2ccccc2)sc1NC(=O)CNC(=O)Cc1cccc(OS(N)(=O)=O)c1 [Compound 351] | > 100 µM | ≤ 1 µM
CCOC(=O)c1cc(-c2ccccc2)sc1NC(=O)CNC(=O)c1cccc(P(=O)(O)O)c1 [Compound 367] | > 100 µM | ≤ 1 µM
CCOC(=O)c1cc(-c2ccccc2)sc1NC(=O)Cn1cc(CNC(=O)c2cccc(P(=O)(O)O)c2)nn1 [Compound 409] | > 100 µM | ≤ 1 µM
CCOC(=O)c1cc(-c2ccccc2)sc1NC(=O)CNC(=O)Cc1cccc(C(F)(F)F)c1 [Compound 326] | > 100 µM | ≤ 1 µM
CCOC(=O)c1cc(-c2ccccc2)sc1NC(=O)CNC(=O)Cc1cccc(OC(F)(F)F)c1 [Compound 328] | > 100 µM | ≤ 1 µM
CCOC(=O)c1cc(-c2ccccc2)sc1NC(=O)CNC(=O)Cc1cccc(Br)c1 [Compound 330] | > 100 µM | ≤ 1 µM
CCOC(=O)c1cc(-c2ccccc2)sc1NC(=O)C1CCCN1C(=O)c1cccc(S(N)(=O)=O)c1 (stereo not drawn) [Compound 72] | ≤ 25 µM | 1 to 10 µM
CCOC(=O)c1cc(-c2ccccc2)ncc1NC(=O)COC(=O)c1cccc(NS(C)(=O)=O)c1 [Compound 372] | > 100 µM | > 25 µM
CCOC(=O)c1cc(-c2ccccc2)sc1NC(=O)COC(=O)c1cccc(NS(C)(=O)=O)c1 [Compound 121] | > 100 µM | ≤ 1 µM

SMILES | EC50 (ADAR1) | Kd (Zα domain of ADAR1 p150)
CCOC(=O)c1cc(-c2ccccc2)sc1NC(=O)CNC(=O)Cc1ccc(P(=O)(OCC)OCC)cc1 [Compound 402] | 50 to 100 µM | ≤ 1 µM
CCOC(=O)c1cc(-c2ccccc2)sc1NC(=O)Cn1cc(-c2cccc(S(N)(=O)=O)c2)nn1 [Compound 427] | > 100 µM | ≤ 1 µM
CCOC(=O)c1cc(-c2ccc(P(=O)(O)O)cc2)sc1NC(=O)COC(=O)c1cccc(NS(C)(=O)=O)c1 [Compound 388] | > 100 µM | ≤ 1 µM
CCOC(=O)c1cc(-c2ccccc2)sc1NC(=O)CNC(=O)c1cccc(S(N)(=O)=O)c1 [Compound 416] | > 100 µM | ≤ 1 µM
CCOC(=O)c1cc(-c2ccccc2)sc1-c1cccc(NC(=O)c2cccc(NS(C)(=O)=O)c2)c1 [Compound 293] | > 100 µM | > 25 µM
CCNC(=O)c1cc(-c2ccccc2)sc1NC(=O)CNC(=O)Cc1cccc(NS(C)(=O)=O)c1 [Compound 376] | > 100 µM | ≤ 1 µM
CCOC(=O)c1cc(N)nn1C(=O)COC(=O)c1cccc(NS(C)(=O)=O)c1 [Compound 346] | > 100 µM | ≤ 1 µM
CS(=O)(=O)Nc1cccc(C(=O)OCC(=O)N2CCN(c3ccccc3)C2=O)c1 [Compound 220] | > 100 µM | ≤ 1 µM
CCNC(=O)c1cc(-c2ccccc2)sc1NC(=O)CN(C)C(=O)Cc1cccc(NS(C)(=O)=O)c1 [Compound 384] | > 100 µM | 1 to 10 µM
CCOC(=O)c1cc(-c2ccccc2)sc1NC(=O)COC(=O)c1cccc(C(F)(F)F)c1 [Compound 70] | > 100 µM | > 25 µM
CCOC(=O)c1cc(-c2ccccc2)ncc1NC(=O)CNC(=O)Cc1cccc(NS(C)(=O)=O)c1 [Compound 387] | > 100 µM | ≤ 1 µM
CCOC(=O)c1cc(-c2ccccc2)sc1NC(=O)CNC(=O)Cc1ccc(P(=O)(O)O)cc1 [Compound 405] | 50 to 100 µM | ≤ 1 µM
CCOC(=O)c1cc(-c2ccccc2)sc1NC(=O)CNC(=O)Cc1cccc(NS(C)(=O)=O)c1 [Compound 310] | ≤ 25 µM | ≤ 1 µM
CCOC(=O)c1cc(-c2ccccc2)sc1NC(=O)[C@H]1CCN(C(=O)c2cccc(S(N)(=O)=O)c2)C1 [Compound 426] | > 100 µM | ≤ 1 µM
CCOC(=O)c1cc(-c2ccccc2)sc1NC(=O)CC(=O)NCc1cccc(NS(C)(=O)=O)c1 [Compound 369] | > 100 µM | > 25 µM
CS(=O)(=O)Nc1cccc(C(=O)OCC(=O)Nc2nc3ccccc3o2)c1 [Compound 270] | > 100 µM | ≤ 1 µM
CCOC(=O)c1cc(-c2ccccc2)sc1NC(=O)CNC(=O)Cc1cccc(P(=O)(O)O)c1 [Compound 350] | > 100 µM | ≤ 1 µM
CCOC(=O)c1cc(-c2ccccc2)sc1NC(=O)COC(=O)c1cccc(P(=O)(O)O)c1 [Compound 325] | > 100 µM | ≤ 1 µM
CCOC(=O)c1cc(-c2ccccc2)sc1-c1coc(CNc2cccc(NS(C)(=O)=O)c2)c1 [Compound 329] | > 100 µM | 1 to 10 µM
CCOC(=O)c1cc(-c2ccccc2)sc1NC(=O)Cn1cnc(-c2cccc(NS(C)(=O)=O)c2)n1 [Compound 274] | > 100 µM | ≤ 1 µM
CCOC(=O)c1nc(-c2ccccc2)sc1NC(=O)COC(=O)c1cccc(NS(C)(=O)=O)c1 [Compound 144] | > 100 µM | ≤ 1 µM
CCOC(=O)c1cc(-c2ccccc2)sc1NC(=O)CCS(=O)(=O)c1cccc(NS(C)(=O)=O)c1 [Compound 321] | > 100 µM | ≤ 1 µM
